From patent US20230248850A1, “GOLD MOLECULAR CLUSTERS AND METHODS OF USING SAME FOR NEAR-INFRARED IMAGING” (The Board of Trustees of the Leland Stanford Junior …, priority 2022, published 2023) come the findings set out here.

Entries after “also recorded” stand apart in the source; their conditions may differ.

One data set has as its system serum proteins (FBS). Put plainly: in vitro. The format is in vitro ADME. Particulars: bovine. As for the experimental part: Evaluated next were the serum protein binding capabilities of Au-GSH cluster and Au-PC conjugate with FBS and compared to that of ICG. Briefly, the clusters and ICG were incubated with FBS for 1 h at 37° C. (FIG. 12). Afterwards, the solutions were filtered using Amicon 50 kDa centrifuge filters (FIGS. 12A and 12B). Au clusters bound to serum proteins will not pass filter while free unbound clusters will be lost to the filtrate. The optical density (OD) of filtrate (in case of Au-GSH and Au-PC) and retentate (in case of ICG) at 808 nm were measured and the corresponding serum protein binding efficiencies were calculated (FIG. 12C). The schematics of the experiments, figures, and absorbance values of Au-GSH+FBS and Au-PC+FBS filtrates as well as ICG+FBS retentate can be found in FIG. 12. The serum protein binding efficiencies for Au-GSH cluster, Au-PC conjugate and ICG were calculated to be 2.7%, 1.74% and 94.5%, respectively.

The test system of data set [1] is Balb/c mice. Put plainly: In vivo NIR-II fluorescence imaging after intravenous injection. Particulars: i.v. injection, up to 24 h p.i. Also on record: species or system mouse. As to the method:
In vivo, the Au-GSH and Au-PC clusters dissolved in PBS were first intravenously (i.v.) administered to mice (5-7 weeks old female Balb/c, n=3 in each group) through tail-vein injection, imaged in the >1100 nm NIR-II window and compared side by side with the clinically approved ICG dye. The bladder NIR-II signals in mice rapidly lit up, at ˜3 min postinjection (p.i) (FIG. 2A, 2B ventral view), as a consequence of kidney drainage for fast renal clearance (dorsal/lateral view images in FIGS. 13A and 14A, respectively).
(§1) The animal experiments and imaging in the NIR-II window were conducted in a two-dimensional, water-cooled 640×512 InGaAs array (Ninox 640, Raptor Photonics). The clusters were excited by an 808-nm continuous-wave diode laser at a power density of 70 mW/cm^2. 1100 nm long-pass filter was used in all the imaging experiments unless stated otherwise. The fluorescent probes were administered through tail vein (intravenous, i.v.), tail base (subcutaneous, s.c.) and (peri)intratumoral (i.t.). NIR-II fluorescence images were recorded at 3 min, 10 min, 30 min, 1 h, 3 h, 6 h, 24 h, 48 h p.i.

Data set [2] has as its system mice bearing syngeneic 4T1 murine breast tumors. Put plainly: NIR-II lymph node imaging after intra-/peri-tumoral injection, 4T1 tumors. In kind it is in vivo, mouse. As for the experimental part:
For lymph node imaging, intra-tumor/peri-tumor administration (i.t.) of Au-PC clusters to mice (5-7 weeks old female Balb/c, n=3 in each group) bearing syngeneic 4T1 murine breast tumors and CT26 colon tumors inoculated on hindlimbs was performed. Several doses of Au-PC probes, including 4× (˜1.2 mg, tumors on both hindlimbs), 1× (˜300 μg, tumor on the right hindlimb) and ⅓× (˜100 μg, tumor on the right hindlimb) were administered (FIG. 3A, FIGS. 16 and 17). The draining inguinal lymph nodes (iLN) started to show NIR-II emission of Au-PC within ˜1 min p.i. and reached high brightness within ˜3 min p.i. (FIG. 3A, FIG. 17 for 4T1; FIG. 12A for CT26 tumor). The LN signal persisted for over 1 h in the draining iLNs (FIG. 3A) after reaching peak intensity at ˜30 min p.i., with a LN/background signal ratio ˜5-10 (FIG. 3D, FIG. 12D). […] The signal completely disappeared after […] p.i. of the Au-PC probe. The Au-PC clusters afforded rapid and effective imaging/detection of the primary tier draining LNs with much weaker signals in higher tier nodes.
3-9-week-old BALB/c female mice (weight: 15-20 g) were purchased from Charles River. The mice were housed on a 12-hour light/12-hour dark at ambient temperature =20-25° C. and humidity=50-65% in Stanford University's Veterinary Service Center. The bedding, nesting material, food and water were provided by the Stanford VSC facility. Prior to each experiment, the mice were shaved using hair-removing lotion (Nair, Softening Baby Oil). For in vivo imaging, the mice were anaesthetized by 2.5% isoflurane and oxygen as a carrying gas at a flow rate of 2 L/min. Per animal care protocols, the mice were carefully monitored during the imaging process and postrecovery period. The experimental groups consisted of n=3 mice. […]
The animal experiments and imaging in the NIR-II window were conducted in a two-dimensional, water-cooled 640×512 InGaAs array (Ninox 640, Raptor Photonics). […] NIR-II fluorescence images were recorded at 3 min, 10 min, 30 min, 1 h, 3 h, 6 h, 24 h, 48 h p.i.

Data set [3] in a line: Excretion by ICP-MS after intra-tumoral injection. The format is in vivo, mouse. Particulars: i.t. injection. As for the experimental part: The biodistribution of probes was analyzed 10 min, 30 min, 24 h or 48 h postadministration. The urine, feces and major organs including the liver, spleen, heart, lungs, and kidneys were collected and digested in nitric acid (68%) for 12 h. Afterwards, the solutions were heated to 150° C. in the digestion solution (nitric acid:hydrogen peroxide=4:1) until transparent and colorless solution was obtained. The concentration of gold in each sample was measured by ICP-MS (Thermo Scientific ICAP 6300 Duo View Spectrometer).

In data set [4] the test system is Balb/c mice. Put plainly: NIR-II lymph node imaging after subcutaneous injection at tail base. The format is in vivo, mouse. Particulars: s.c. tail base. As for the experimental part:
Investigated next was LN draining post subcutaneous (s.c.) injection of the three probes at the mouse tail base (FIG. 5) (5-7 weeks old female Balb/c, n=3 in each group). The Au-PC clusters within 3 min p.i. migrated to the lymphatic vessels connecting the injection site to the draining iLN (FIG. 5A and FIG. 23). Strong signals in the iLN were seen up to 1 h and decreased by ˜40% 2 h p.i. (FIG. 5D). […] In contrast, upon ICG administration (FIG. 5C), the fluorescent signal in iLN appeared 3 min p.i. but with an intensity much lower compared to that of Au-PC probe at the same time postinjection (FIG. 5F). After 2-3 h p.i. (or even later) ICG signal in the iLN reached peak intensity and persisted. […] The retention of ICG at the injection site persisted over an extended period of time (FIG. 5F) much longer than Au-PC. The Au-PC molecular clusters were also unique with little retention at subcutaneous injection sites among various nanomaterials (with well-coated hydrophilic layers such as PEG) including quantum dots (QDs), carbon nanotubes (CNTs) and organic NIR II dyes^67,68. The trapping of NIR-II probes at the injection site and staining it for weeks is undesirable due to potential long-term side effects.
as §1

The term fraction unbound denotes the share of the substance not bound to proteins or other matrix. A higher fraction unbound goes with much free substance. `CC1(C)C(/C=C/C=C/C=C/C=C2\N(CCCCS(=O)(=O)O)c3ccc4ccccc4c3C2(C)C)=[N+](CCCCS(=O)(=O)[O-])c2ccc3ccccc3c21` [ICG, indocyanine green]: the fraction unbound at 1 h in the data set with serum proteins (FBS) was 0.055. The “NIR-II signal distribution and retention in organs” value in the data set with Balb/c mice [1] was “strong NIR-II signals were observed in liver and intestine; also recorded: no significant ICG retention in major organs”. Further, in data set [2] (i.t. injection), the “signal at tumor injection site 24 h p.i.” value is “significant signals were still detected at the tumor injection sites”. Further, the “time of peak lymph node intensity” value in data set [2] (i.t. injection into 4T1 tumor) was in the range of 2 to 3 h. In data set [2] (i.t. injection, 4T1 tumors, at peak intensity), the “LN/background (LN/B) signal ratio” value is listed as 4. The excretion route entry in data set [3] is “liver excretory system”. In addition, in the data set with Balb/c mice [4], the “signal retention at 24 h p.i.” value is “significant signal still remained in the lymph node, at the injection site and in the liver”; the “time fluorescent signal in iLN appeared” value is 3 min; the “time of iLN signal peak” value lay in the range of 2 to 3 h.
